*1 amine or outer side, *2 acyl side, *3 side chain or, on linkers, in order; H or OH if unused. Where a SMILES comes first, the peptide text is derived from it. Bridges are numbered along the chain shown (N, C = ends). [ ]: non-standard residue; d: D form. X1 = O=C(O)CCCCCCCCCCCCCCCCCCC(=O)N[C@@H](CCCCNC(=O)COCCOCCNC(=O)COCCOCCNC(=O)CCC(=O)N(CCNC(=O)C[*:1])CCNC(=O)C[*:2])C(=O)O; Phe(2-F) = N[C@@H](Cc1ccccc1F)C(=O)O; αMeK = C[C@](N)(CCCCN)C(=O)O; αMeS = C[C@](N)(CO)C(=O)O; Iva = CC[C@](C)(N)C(=O)O; Aib = CC(C)(N)C(=O)O
Legend:
GLP-1R = biological target: T1, GLP-1R (Homo sapiens, UniProt P43220); assay: CreLuc method (CRE-luciferase reporter), HEK293/pGM-CREB-L-Luc/GLP-1R pool; type: cell-based; conditions: 6 h incubation, read-out: EC50 (pM) for each receptor GLP-1R
T1 construct: expressed in transfected cells
Procedure, shortened: (§1)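 Stable HEK293 pools co-expressing each receptor with a CRE-luciferase reporter were plated at 20,000 cells/well in freestyle medium and treated with compound dilution series for 6 h at 37 °C. Luminescence was read with ONE-GLO to derive EC50.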

GIPR = biological target: T2, GIPR (Homo sapiens, UniProt P48546); assay: CreLuc method (CRE-luciferase reporter), HEK293/pGM-CREB-L-Luc/GIPR pool; type: cell-based; conditions: 6 h incubation, read-out: EC50 (pM) for each receptor GIPR
T2 construct: expressed in transfected cells
T2 sequence (P48546 22-466): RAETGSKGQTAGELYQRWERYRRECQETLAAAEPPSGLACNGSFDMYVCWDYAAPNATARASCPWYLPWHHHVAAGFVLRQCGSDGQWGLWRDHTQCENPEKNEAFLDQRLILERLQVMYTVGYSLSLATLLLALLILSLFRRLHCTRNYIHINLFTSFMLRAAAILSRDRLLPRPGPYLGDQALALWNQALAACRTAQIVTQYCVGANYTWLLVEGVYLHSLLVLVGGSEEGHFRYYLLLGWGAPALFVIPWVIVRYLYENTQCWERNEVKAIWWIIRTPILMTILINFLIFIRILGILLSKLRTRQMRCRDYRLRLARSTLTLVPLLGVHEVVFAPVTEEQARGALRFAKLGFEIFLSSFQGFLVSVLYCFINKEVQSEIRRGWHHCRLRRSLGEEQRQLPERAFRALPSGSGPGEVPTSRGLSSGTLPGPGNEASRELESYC
Procedure, shortened: as §1

GCGR = biological target: T3, GCGR (Homo sapiens, UniProt P47871); assay: CreLuc method (CRE-luciferase reporter), 293HEK/pGM-CREB-L-Luc/GCGR pool; type: cell-based; conditions: 6 h incubation, read-out: EC50 (pM) for each receptor GCGR
T3 construct: expressed in transfected cells
Procedure, shortened: as §1

in vivo = assay: in vivo; set-up: species or system male SD rats; conditions: rat
Experimental: The pharmacokinetic behavior of target peptide derivatives (or polypeptide derivatives) prepared in Example 1 and Example 2, i.e., TG1-TG94 in rodents was tested. The specific steps are as follows:
The target peptide derivatives (TG1-TG94) to be tested were administered to male SD rats via subcutaneous injection (SC, 3 mg/kg; drug vehicle: PBS, concentration: 1.5 mg/mL; administration volume: 2 mL) and intravenous injection (IV, 1 mg/kg; drug vehicle: PBS, concentration: 0.5 mg/mL; administration volume: 2 mL) as a single dose, respectively. Whole blood samples were collected from the jugular vein or other appropriate vein at the following time points after administration: for SC, 15 min, 30 min, 1 h, 2 h, 4 h, 6 h, 8 h, 24 h, 48 h, 72 h, 96 h, 120 h, and 168 h; for IV, 5 min, 15 min, 30 min, 1 h, 2 h, 4 h, 8 h, 24 h, 48 h, 72 h, 96 h, 120 h, and 168 h. 0.2 mL of blood was collected and transferred into a labeled EDTA-K2 anticoagulant tube. The tube was gently inverted to ensure thorough mixing of the anticoagulant (EDTA-K2) with the blood and immediately placed on wet ice. Plasma separation was performed as soon as possible by centrifugation under the following conditions: 4°C, 6800xg, for 6 min. The plasma samples were stored in a refrigerator at no higher than -20°C and used for analysis when needed.
Under the condition of yellow light in an ice-water bath, except for blank samples, 300 µL of precipitant containing an internal standard was added to a 96-well plate containing 20 µL of standard curve sample, quality control sample, or unknown sample; 300 µL of acetonitrile was added to the blank sample. The mixture was vortexed, mixed well, and then centrifuged. 150 µL of the supernatant after centrifugation was transferred to a new 96-well plate, and 150 µL of ultrapure water was added and mixed well. The above samples were subjected to quantitative analysis using LC-MS analysis with XB-C18 (2.1 * 100 mm, 3 µm) chromatography for gradient elution. The mobile phases used were: mobile phase A = 0.1% formic acid-water; mobile phase B = acetonitrile. Phoenix WinNonlin software was used to calculate the pharmacokinetic parameters. […] Table 5A: Pharmacokinetic parameters of target peptide derivatives

T3 sequence (P47871 26-477, species assumed): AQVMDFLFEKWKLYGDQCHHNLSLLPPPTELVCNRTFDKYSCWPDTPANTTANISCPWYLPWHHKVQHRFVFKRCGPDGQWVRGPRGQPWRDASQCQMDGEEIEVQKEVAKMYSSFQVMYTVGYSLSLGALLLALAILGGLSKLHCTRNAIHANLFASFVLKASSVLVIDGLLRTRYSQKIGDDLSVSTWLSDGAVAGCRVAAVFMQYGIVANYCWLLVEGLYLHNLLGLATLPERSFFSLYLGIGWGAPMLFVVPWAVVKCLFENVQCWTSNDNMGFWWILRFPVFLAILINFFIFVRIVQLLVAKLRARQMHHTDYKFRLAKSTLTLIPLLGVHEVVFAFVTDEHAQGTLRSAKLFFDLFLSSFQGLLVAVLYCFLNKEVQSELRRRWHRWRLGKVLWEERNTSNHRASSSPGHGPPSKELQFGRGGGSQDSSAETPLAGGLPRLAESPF
T1 sequence (P43220 24-463, species assumed): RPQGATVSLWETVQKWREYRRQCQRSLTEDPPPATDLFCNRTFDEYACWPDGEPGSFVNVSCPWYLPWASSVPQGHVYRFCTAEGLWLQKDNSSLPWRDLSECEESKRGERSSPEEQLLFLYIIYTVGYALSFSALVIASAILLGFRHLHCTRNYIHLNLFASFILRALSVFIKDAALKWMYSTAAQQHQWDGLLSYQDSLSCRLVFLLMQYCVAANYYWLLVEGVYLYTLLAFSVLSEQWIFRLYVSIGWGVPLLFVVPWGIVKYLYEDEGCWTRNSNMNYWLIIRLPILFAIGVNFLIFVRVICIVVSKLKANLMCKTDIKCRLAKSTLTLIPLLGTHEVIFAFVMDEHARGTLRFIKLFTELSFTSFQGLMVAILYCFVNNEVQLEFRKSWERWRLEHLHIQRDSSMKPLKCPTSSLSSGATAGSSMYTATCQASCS

CC[C@H](C)[C@@H]1NC(=O)[C@H](Cc2ccccc2)NC(=O)[C@@H](NC(=O)[C@H](CCC(N)=O)NC(=O)[C@H](CCC(N)=O)NC(=O)[C@H](C)NC(=O)[C@H](CCCCNC(C)=O)NC(=O)[C@](C)(CCCCN)NC(=O)[C@H](CC(=O)O)NC(=O)[C@H](CC(C)C)NC(=O)[C@H](CC(C)C)NC(=O)[C@@H](NC(=O)[C@](C)(CO)NC(=O)[C@H](Cc2ccc(O)cc2)NC(=O)[C@H](CC(=O)O)NC(=O)[C@H](CO)NC(=O)[C@@H](NC(=O)[C@H](Cc2ccccc2F)NC(=O)[C@@H](NC(=O)CNC(=O)[C@H](CCC(N)=O)NC(=O)C(C)(C)NC(=O)[C@@H](N)Cc2ccc(O)cc2)[C@@H](C)O)[C@@H](C)O)[C@@H](C)CC)CSCC(=O)NCCN(C(=O)CCC(=O)NCCOCCOCC(=O)NCCOCCOCC(=O)NCCCC[C@H](NC(=O)CCCCCCCCCCCCCCCCCCC(=O)O)C(=O)O)CCNC(=O)CSC[C@@H](C(=O)NCC(=O)NCC(=O)N2CCC[C@H]2C(=O)N[C@@H](CO)C(=O)N[C@@H](CO)C(=O)NCC(=O)N[C@@H](C)C(=O)N2CCC[C@H]2C(=O)N2CCC[C@H]2C(=O)N2CCC[C@H]2C(=O)N[C@@H](CO)C(N)=O)NC(=O)[C@H](CC(C)C)NC(=O)[C@H](CC(C)C)NC(=O)[C@H](Cc2ccc(O)cc2)NC(=O)[C@H](CCC(=O)O)NC1=O [TG56] (H-Y[Aib]QGT[Phe(2-F)]TSDY[αMeS]ILLD[αMeK]K(Ac)AQQCFIEYLLCGGPSSGAPPPS-NH2; linker 21-28 via X1)
EC50 (GLP-1R): 197 pM
EC50 (GIPR): 39.5 pM
EC50 (GCGR): 681 pM

CC[C@H](C)[C@@H]1NC(=O)[C@H](Cc2ccccc2)NC(=O)[C@@H](NC(=O)C(C)(C)NC(=O)[C@H](CCC(N)=O)NC(=O)[C@H](C)NC(=O)[C@H](CCCCNC(C)=O)NC(=O)[C@H](CCCCN)NC(=O)[C@H](CC(=O)O)NC(=O)[C@H](CC(C)C)NC(=O)[C@](C)(CC)NC(=O)[C@@H](NC(=O)[C@H](CO)NC(=O)[C@H](Cc2ccc(O)cc2)NC(=O)[C@H](CC(=O)O)NC(=O)[C@H](CO)NC(=O)[C@@H](NC(=O)[C@H](Cc2ccccc2F)NC(=O)[C@@H](NC(=O)CNC(=O)[C@H](Cc2c[nH]cn2)NC(=O)C(C)(C)NC(=O)[C@@H](N)Cc2c[nH]cn2)[C@@H](C)O)[C@@H](C)O)[C@@H](C)CC)CSCC(=O)NCCN(C(=O)CCC(=O)NCCOCCOCC(=O)NCCOCCOCC(=O)NCCCC[C@H](NC(=O)CCCCCCCCCCCCCCCCCCC(=O)O)C(=O)O)CCNC(=O)CSC[C@@H](C(=O)NCC(=O)NCC(=O)N2CCC[C@H]2C(=O)N[C@@H](CO)C(=O)N[C@@H](CO)C(=O)NCC(=O)N[C@@H](C)C(=O)N2CCC[C@H]2C(=O)N2CCC[C@H]2C(=O)N2CCC[C@H]2C(=O)N[C@@H](CO)C(N)=O)NC(=O)[C@H](CC(C)C)NC(=O)[C@H](CC(C)C)NC(=O)[C@H](Cc2ccc(O)cc2)NC(=O)[C@H](CCC(=O)O)NC1=O [TG66] (H-H[Aib]HGT[Phe(2-F)]TSDYSI[Iva]LDKK(Ac)AQ[Aib]CFIEYLLCGGPSSGAPPPS-NH2; linker 21-28 via X1)
EC50 (GLP-1R): 435 pM
EC50 (GIPR): 34.7 pM
EC50 (GCGR): 201 pM

CC[C@H](C)[C@@H]1NC(=O)[C@H](Cc2ccccc2)NC(=O)[C@@H](NC(=O)C(C)(C)NC(=O)[C@H](CCC(N)=O)NC(=O)[C@H](C)NC(=O)[C@H](CCCCNC(C)=O)NC(=O)[C@H](CCCCN)NC(=O)[C@H](CC(=O)O)NC(=O)[C@H](CC(C)C)NC(=O)[C@](C)(CC(C)C)NC(=O)[C@@H](NC(=O)[C@H](CO)NC(=O)[C@H](Cc2ccc(O)cc2)NC(=O)[C@H](CC(=O)O)NC(=O)[C@H](CO)NC(=O)[C@@H](NC(=O)[C@H](Cc2ccccc2F)NC(=O)[C@@H](NC(=O)CNC(=O)[C@H](CCC(N)=O)NC(=O)C(C)(C)NC(=O)[C@@H](N)Cc2ccc(O)cc2)[C@@H](C)O)[C@@H](C)O)[C@@H](C)CC)CCCCNC(=O)CN(C(=O)CCCNC(=O)COCCOCCNC(=O)COCCOCCNC(=O)CC[C@H](NC(=O)CCCCCCCCCCCCCCCCCCC(=O)O)C(=O)O)CC(=O)NCCCC[C@@H](C(=O)NCC(=O)NCC(=O)N2CCC[C@H]2C(=O)N[C@@H](CO)C(=O)N[C@@H](CO)C(=O)NCC(=O)N[C@@H](C)C(=O)N2CCC[C@H]2C(=O)N2CCC[C@H]2C(=O)N2CCC[C@H]2C(=O)N[C@@H](CO)C(N)=O)NC(=O)[C@H](CC(C)C)NC(=O)[C@H](CC(C)C)NC(=O)[C@H](Cc2ccc(O)cc2)NC(=O)[C@H](CCC(=O)O)NC1=O [TG85]
EC50 (GLP-1R): 254 pM
EC50 (GIPR): 61.2 pM
EC50 (GCGR): 330 pM

CC[C@H](C)[C@H](NC(=O)[C@H](Cc1ccccc1)NC(=O)[C@H](C)NC(=O)[C@@H]1CCCCNC(=O)CN(C(=O)CCCNC(=O)COCCOCCNC(=O)COCCOCCNC(=O)CC[C@H](NC(=O)CCCCCCCCCCCCCCCCCCC(=O)O)C(=O)O)CC(=O)NCCCC[C@H](NC(=O)[C@H](CCCCN)NC(=O)[C@H](CC(=O)O)NC(=O)[C@H](CC(C)C)NC(=O)[C@](C)(CC(C)C)NC(=O)[C@@H](NC(=O)[C@H](CO)NC(=O)[C@H](Cc2ccc(O)cc2)NC(=O)[C@H](CC(=O)O)NC(=O)[C@H](CO)NC(=O)[C@@H](NC(=O)[C@H](Cc2ccccc2F)NC(=O)[C@@H](NC(=O)CNC(=O)[C@H](CCC(N)=O)NC(=O)C(C)(C)NC(=O)[C@@H](N)Cc2ccc(O)cc2)[C@@H](C)O)[C@@H](C)O)[C@@H](C)CC)C(=O)N[C@@H](C)C(=O)N[C@@H](CCC(N)=O)C(=O)N1)C(=O)N[C@@H](CCC(=O)O)C(=O)N[C@@H](Cc1ccc(O)cc1)C(=O)N[C@@H](CC(C)C)C(=O)N[C@@H](CC(C)C)C(=O)N[C@@H](C)C(=O)NCC(=O)NCC(=O)N1CCC[C@H]1C(=O)N[C@@H](CO)C(=O)N[C@@H](CO)C(=O)NCC(=O)N[C@@H](C)C(=O)N1CCC[C@H]1C(=O)N1CCC[C@H]1C(=O)N1CCC[C@H]1C(=O)N[C@@H](CO)C(N)=O [TG87]
AUC(0-inf) (in vivo; male, SD, iv, 1 mg/kg): 257 µg·h/mL
AUC(0-t) (in vivo; male, SD, iv, 1 mg/kg): 254 µg·h/mL
MRT (in vivo; male, SD, iv, 1 mg/kg): 21.4 h
Vd (in vivo; male, SD, iv, 1 mg/kg): 0.0891 L/kg
clearance (in vivo; male, SD, iv, 1 mg/kg): 0.0706 mL/min/kg
half-life (in vivo; male, SD, iv, 1 mg/kg): 13.9 h
bioavailability (in vivo; male, SD, sc): 31.8%
AUC(0-inf) (in vivo; male, SD, sc, 3 mg/kg): 245 µg·h/mL
AUC(0-t) (in vivo; male, SD, sc, 3 mg/kg): 243 µg·h/mL
CL/F (in vivo; male, SD, sc, 3 mg/kg): 0.204 mL/min/kg
Cmax (in vivo; male, SD, sc, 3 mg/kg): 4880 ng/mL
MRT (in vivo; male, SD, sc, 3 mg/kg): 32.3 h
Tmax (in vivo; male, SD, sc, 3 mg/kg): 24 h
half-life (in vivo; male, SD, sc, 3 mg/kg): 15.6 h
AUC0-t /AUC0-inf (in vivo; iv, 1 mg/kg): 0.989
Kel (in vivo; iv, 1 mg/kg): 0.0504 h⁻¹
AUC0-t /AUC0-inf (in vivo; sc, 3 mg/kg): 0.993
Vz/F (in vivo; sc, 3 mg/kg): 0.276 L/kg
EC50 (GLP-1R): 171 pM
EC50 (GIPR): 27.6 pM
EC50 (GCGR): 172 pM
